Data on 8 molecules can be found in PMC11643677, “In Silico Prediction of Alkaline Phosphatase Interaction with the Natural Inhibitory 5-Azaindoles Guitarrin C and D” (Molecules, 2024).

Entries after “also recorded” stand apart in the source; their conditions may differ.

The target in test [1] is T1, alkaline phosphatase CmAP (Cobetia amphilecti, UniProt Q1W622). On the set-up: method as in PMID 31181923. The following applies: cited from earlier work; for inhibitory activity against CmAP: previous study ref 33; for affinity relative to the chelator EDTA: CmAP, higher affinity than EDTA ref 33.
T1 sequence (Q1W622 entry or part of it): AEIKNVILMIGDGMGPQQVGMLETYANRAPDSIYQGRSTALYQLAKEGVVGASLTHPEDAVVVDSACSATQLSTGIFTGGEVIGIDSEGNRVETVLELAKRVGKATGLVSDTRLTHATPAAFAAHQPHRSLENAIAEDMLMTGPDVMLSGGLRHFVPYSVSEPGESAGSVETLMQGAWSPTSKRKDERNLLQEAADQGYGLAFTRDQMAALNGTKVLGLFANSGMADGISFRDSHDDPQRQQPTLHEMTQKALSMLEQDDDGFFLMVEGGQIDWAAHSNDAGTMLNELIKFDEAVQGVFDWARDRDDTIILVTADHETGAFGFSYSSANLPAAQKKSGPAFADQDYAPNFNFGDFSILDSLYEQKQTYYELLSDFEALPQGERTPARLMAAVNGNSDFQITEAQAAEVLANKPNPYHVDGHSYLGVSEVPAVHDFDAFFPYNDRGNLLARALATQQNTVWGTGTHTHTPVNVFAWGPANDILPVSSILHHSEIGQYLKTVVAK
Test [2] has as its target Vibrio splendidus alkaline phosphatase (VAP). The arrangement: method as in PMID 33102813. The following applies: cited from earlier work.
For test [3], the target named is T2, calf intestinal alkaline phosphatase (CIAP) (Bos taurus, UniProt P19111).
T2 construct: purchased Invitrogen, Thermo Fisher Scientific 18009019
T2 sequence (P19111 20-506 limits assumed): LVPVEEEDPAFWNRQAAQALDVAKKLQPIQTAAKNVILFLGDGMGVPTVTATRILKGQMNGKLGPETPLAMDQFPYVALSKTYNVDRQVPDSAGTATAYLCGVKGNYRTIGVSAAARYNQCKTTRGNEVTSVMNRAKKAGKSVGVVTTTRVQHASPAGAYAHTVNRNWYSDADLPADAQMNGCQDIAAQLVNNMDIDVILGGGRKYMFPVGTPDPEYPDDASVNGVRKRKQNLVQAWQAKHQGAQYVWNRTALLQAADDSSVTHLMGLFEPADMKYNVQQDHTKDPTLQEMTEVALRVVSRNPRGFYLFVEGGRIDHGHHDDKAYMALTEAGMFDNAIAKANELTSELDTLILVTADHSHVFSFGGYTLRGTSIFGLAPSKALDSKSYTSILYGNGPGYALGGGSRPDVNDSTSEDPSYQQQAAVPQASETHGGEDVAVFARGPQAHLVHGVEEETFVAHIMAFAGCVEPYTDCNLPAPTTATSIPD
Description: Inhibitory activity assay on calf intestinal alkaline phosphatase (pNPP hydrolysis). It counts as biochemical. The following applies: for IC50: 2 mM pNPP, 0.1 M Tris-HCl pH 10.0, 0.2 M KCl, 37 °C, 60 min preincubation, mean of three ± SD; for Ki: by the Cheng–Prusoff formula Ki = IC50/(1 + [S]/Km). The procedure:
(§1) The enzymatic activity was evaluated through the addition of 5 μL of the protein solution sample to a solution of 495 μL buffer, comprising 0.1 M Tris-HCl (pH 10.0), 0.2 M KCl, and 2 mM pNPP. The reaction mixture was incubated at 37 °C for a period of 30 min. To halt the reaction, 2 mL of chilled 0.5 M NaOH was introduced. The quantity of p-nitrophenol (pNP) produced was quantified spectrophotometrically at a wavelength of 400 nm, with the control sample, which lacked the enzyme, serving as a reference point. The specific activity was calculated using the following formula: (2.5 × OD400)/(18.6 × 0.005 × t × C), where OD400 is the optical density at a wavelength of 400 nm, 2.5 is the volume of the reaction mixture in mL, 18.6 is the extinction coefficient of pNP (M^−1/cm^−1), t is the incubation time at 37 °C in minutes, 0.005 is the sample volume in mL, and C is the protein concentration in the sample (mg/mL). The quantity of enzyme required for the generation of 1 µM pNP within a one-minute period was established as the unit of activity.
(§2) The effect of the natural inhibitors guitarrins C and D [33] on the activity of the alkaline phosphatases CmAP from C. amphilecti KMM 296 and calf intestinal alkaline phosphatase (CIAP, Invitrogen™ 18009019, Thermo Fisher Scientific, Waltham, MA, USA) was investigated in a buffer containing 0.1 M tris-HCl (pH 10.0) with 0.2 KCl. […] The activity of ALPs was determined using the standard method described above. CmAP (3.22 mg/mL, 2929 U/mg) and CIAP (0.99 mg/mL, 647 U/mg) were dissolved in 50 mM tris-HCl (pH 8.0) buffer with 2 mM MgCl2. Results were presented as the percentage of inhibition relative to control activity. The IC50 for each compound tested was defined as the concentration of compound that inhibited the enzyme activity by 50%. IC50 values are given as the mean of three experiments and standard deviation.
(§3) The kinetic parameters (Km and Vmax) were determined for alkaline phosphatases CmAP and CIAP. The mean Km values and standard deviations were presented. […] The inhibition constant, Ki, was determined using the Cheng–Prusoff formula [51]. The binding activity of the inhibitor to the reactive substrate (Ki) can be calculated using the following formula: Ki = IC50/(1 + [S]/Km), where IC50 is the functional activity of the inhibitor, [S] is the concentration of the reactive substrate, and KM is the Michaelis constant. The results were presented in the Origin 7.0 software.

Test [4] has as its target T1, alkaline phosphatase CmAP. Description: Inhibitory activity assay and kinetics on alkaline phosphatase CmAP (pNPP hydrolysis). It counts as biochemical, Cobetia amphilecti KMM 296. The note with it: for IC50: 2 mM pNPP, 0.1 M Tris-HCl pH 10.0, 0.2 M KCl, 37 °C, 60 min preincubation, mean of three ± SD; for residual activity: at maximum inhibition; for Ki: by the Cheng–Prusoff formula Ki = IC50/(1 + [S]/Km); for type of inhibition: pNPP substrate; for Vmax in the presence of inhibitor: pNPP, guitarrin C 52.0 µM, guitarrin D 96.0 µM, 60 min preincubation at 23 °C, without inhibitor 5.98 ± 0.03. The method, then:
as §1, §2, §3

Test [5] has as its system ALP. On the set-up: method as in PMID 25694083, PMID 37274413, PMID 36362051. The note with it: standard inhibitory ligands of ALP ref 17-19; cited from earlier work.

guitarrin E: the “inhibitory activity against CmAP” value in test [1] is “no inhibitory activity; also recorded: non-inhibitory”.
In the case of guitarrin A, in test [1], the “inhibitory activity against CmAP” value was “no inhibitory activity; also recorded: non-inhibitory”.
As usually defined, the IC50 is the concentration that inhibits the measured activity by half. A word on the Ki: it is the equilibrium dissociation constant of an inhibitor or competing ligand from its target. With `NC1CCCCC1` [cyclohexylamine], in test [2] (VAP ref 27), the IC50 is 35700 µM, the “Michaelis–Menten constant in the presence of inhibitor (unchanging)” value is 195 ± 4 µM and the type of inhibition entry was “non-competitive”. Besides, the Ki in test [2] (VAP, Ki equal to IC50 ref 27) was 35700 µM.
By residual activity is commonly meant the activity still measured, relative to the control. Regarding `O=C(O)c1nc(CO)c2cc[nH]c2c1O` [guitarrin D], in test [3], the “difference in inhibitory activity compared to guitarrin C” value stood at 1.2 fold; the “maximum inhibition of activity” value was determined as 57%; the midpoint of inhibition, the IC50, lay at 230 ± 1.6 µM; the Ki was determined as 45 ± 0.2 µM. Moreover, in test [4], the “maximum inhibition of activity” value was 85%, half-maximal inhibition (IC50) was put at 110 ± 0.8 µM, the residual activity is listed as 15% and the Ki was 20.56 ± 0.06 µM. Moreover, in test [4], the type of inhibition result is recorded as “mixed type of inhibition” and the “Vmax in the presence of inhibitor” value worked out at 3.98 ± 0.02 U mL^−1. The “decrease in Vmax” value in test [4] (with versus without inhibitor) was “more than 2 fold”. Moreover, in test [1], the “affinity relative to the chelator EDTA” value was 100 fold and the “inhibitory activity against CmAP” value is “pronounced inhibitory activity”.
On to `N[C@@H](Cc1ccccc1)C(=O)O` [L-phenylalanine], for which the IC50 in test [5] was 80 µM.
On to `c1ccc([C@H]2CN3CCSC3=N2)cc1` [levamisole], for which the IC50 in test [5] is 19 µM.
Regarding `Cn1c(=O)c2[nH]cnc2n(C)c1=O` [theophylline], in test [5], the IC50 is 47 µM and the Ki was 91 µM.
Take `O=C(O)c1cc2[nH]ccc2c(CO)n1` [guitarrin C]: in test [3], the “maximum inhibition of activity” value is listed as 57%, the IC50 was 195 ± 2.2 µM and the Ki came to 38 ± 0.1 µM. The type of inhibition result in test [3] (pNPP substrate) was “non-competitive”. In test [4], the “maximum inhibition of activity” value worked out at 85%, the IC50 was 8.5 ± 0.08 µM, the residual activity is 15% and the Ki is 1.58 ± 0.04 µM. Besides, in test [4], the type of inhibition result was “non-competitive” and the “Vmax in the presence of inhibitor” value worked out at 2.62 ± 0.02 U mL^−1. Moreover, the “activity relative to guitarrin D” value in test [4] (more active) came to 10 fold. For the same molecule, in test [1], the “affinity relative to the chelator EDTA” value was 1000 fold and the “inhibitory activity against CmAP” value is reported as “pronounced inhibitory activity”.
